{
  "source": "paper PMC8333062",
  "about": "“Chemical tools for epichaperome-mediated interactome dysfunctions of the central nervous system” (Nature Communications, 2021)",
  "key": {"[1]": {"system": "stress HSP90 from MDA-MB-468 cancer cells", "experiment": "Binding to stress HSP90", "design": "species or system human", "settings": "study protocol; read-out: affinity (EC50) for stress HSP90"}, "[2]": {"molecular_target": "T1, 70 key receptor, enzyme, and ion channel proteins (Homo sapiens, UniProt P07550)", "T1 construct": "purchased Caliper Life Sciences (now PerkinElmer), NOVASCREEN General SEP II", "experiment": "General side effect profile (SEP) II diversity panel", "type": "binding", "settings": "1.0E-5 M"}, "[3]": {"molecular_target": "T2, 70 key receptor, enzyme, and ion channel proteins (Homo sapiens, UniProt P08172)", "T2 construct": "purchased Caliper Life Sciences (now PerkinElmer), NOVASCREEN General SEP II", "experiment": "General side effect profile (SEP) II diversity panel", "type": "binding", "settings": "1.0E-5 M"}, "[4]": {"molecular_target": "70 key receptor, enzyme, and ion channel proteins (Homo sapiens, UniProt P11229)", "sequence (P11229 whole entry)": "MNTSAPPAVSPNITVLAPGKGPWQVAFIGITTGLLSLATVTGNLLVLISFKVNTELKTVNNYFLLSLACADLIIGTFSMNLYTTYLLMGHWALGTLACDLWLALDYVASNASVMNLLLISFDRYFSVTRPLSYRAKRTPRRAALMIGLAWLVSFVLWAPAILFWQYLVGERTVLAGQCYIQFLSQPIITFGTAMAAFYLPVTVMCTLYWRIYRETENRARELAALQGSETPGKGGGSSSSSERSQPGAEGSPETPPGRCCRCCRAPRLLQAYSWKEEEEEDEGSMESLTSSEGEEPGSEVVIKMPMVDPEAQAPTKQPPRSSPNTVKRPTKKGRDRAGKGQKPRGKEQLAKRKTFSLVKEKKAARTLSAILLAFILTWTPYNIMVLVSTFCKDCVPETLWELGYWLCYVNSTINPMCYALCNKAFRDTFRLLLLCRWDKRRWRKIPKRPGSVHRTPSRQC", "experiment": "General side effect profile (SEP) II diversity panel", "type": "binding"}, "[5]": {"molecular_target": "T3, 70 key receptor, enzyme, and ion channel proteins (Homo sapiens, UniProt P17252)", "T3 construct": "purchased Caliper Life Sciences (now PerkinElmer), NOVASCREEN General SEP II", "experiment": "General side effect profile (SEP) II diversity panel", "type": "binding", "settings": "1.0E-5 M"}, "[6]": {"molecular_target": "T4, 70 key receptor, enzyme, and ion channel proteins (Homo sapiens, UniProt P17612)", "T4 construct": "purchased Caliper Life Sciences (now PerkinElmer), NOVASCREEN General SEP II", "experiment": "General side effect profile (SEP) II diversity panel", "type": "binding", "settings": "1.0E-5 M"}, "[7]": {"molecular_target": "T5, 70 key receptor, enzyme, and ion channel proteins (Homo sapiens, UniProt P20309)", "T5 construct": "purchased Caliper Life Sciences (now PerkinElmer), NOVASCREEN General SEP II", "T5 sequence (P20309 whole entry)": "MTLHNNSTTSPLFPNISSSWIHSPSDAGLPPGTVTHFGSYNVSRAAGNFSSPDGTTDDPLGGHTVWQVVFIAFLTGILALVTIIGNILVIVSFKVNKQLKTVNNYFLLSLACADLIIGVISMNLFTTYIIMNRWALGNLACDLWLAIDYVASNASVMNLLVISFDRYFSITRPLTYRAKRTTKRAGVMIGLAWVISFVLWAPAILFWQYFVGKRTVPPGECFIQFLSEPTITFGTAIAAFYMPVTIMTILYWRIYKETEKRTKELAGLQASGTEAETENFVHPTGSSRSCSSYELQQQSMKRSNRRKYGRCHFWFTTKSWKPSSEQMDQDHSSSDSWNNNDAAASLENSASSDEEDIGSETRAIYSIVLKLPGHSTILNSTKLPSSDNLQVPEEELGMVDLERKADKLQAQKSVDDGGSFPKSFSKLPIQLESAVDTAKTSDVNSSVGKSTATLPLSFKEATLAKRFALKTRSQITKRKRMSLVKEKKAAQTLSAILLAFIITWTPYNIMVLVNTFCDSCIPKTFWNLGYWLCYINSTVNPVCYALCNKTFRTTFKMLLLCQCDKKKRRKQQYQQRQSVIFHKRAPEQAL", "experiment": "General side effect profile (SEP) II diversity panel", "type": "binding"}, "[8]": {"molecular_target": "T6, 70 key receptor, enzyme, and ion channel proteins (Homo sapiens, UniProt P21728)", "T6 construct": "purchased Caliper Life Sciences (now PerkinElmer), NOVASCREEN General SEP II", "T6 sequence (P21728 whole entry)": "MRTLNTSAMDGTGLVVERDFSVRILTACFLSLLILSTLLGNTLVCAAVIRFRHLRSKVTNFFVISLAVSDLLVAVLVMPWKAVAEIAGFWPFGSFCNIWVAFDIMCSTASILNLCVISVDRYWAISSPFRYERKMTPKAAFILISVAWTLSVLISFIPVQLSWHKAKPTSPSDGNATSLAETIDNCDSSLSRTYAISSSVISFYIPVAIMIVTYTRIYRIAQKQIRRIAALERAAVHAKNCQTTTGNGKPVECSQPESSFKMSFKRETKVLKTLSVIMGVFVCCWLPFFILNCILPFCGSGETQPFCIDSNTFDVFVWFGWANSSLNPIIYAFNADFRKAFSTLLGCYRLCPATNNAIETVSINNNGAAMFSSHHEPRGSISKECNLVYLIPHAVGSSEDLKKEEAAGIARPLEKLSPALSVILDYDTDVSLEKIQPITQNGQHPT", "experiment": "General side effect profile (SEP) II diversity panel", "type": "binding", "settings": "1.0E-5 M"}, "[9]": {"molecular_target": "T7, 70 key receptor, enzyme, and ion channel proteins (Homo sapiens, UniProt P21731)", "T7 construct": "purchased Caliper Life Sciences (now PerkinElmer), NOVASCREEN General SEP II", "T7 sequence (P21731 whole entry)": "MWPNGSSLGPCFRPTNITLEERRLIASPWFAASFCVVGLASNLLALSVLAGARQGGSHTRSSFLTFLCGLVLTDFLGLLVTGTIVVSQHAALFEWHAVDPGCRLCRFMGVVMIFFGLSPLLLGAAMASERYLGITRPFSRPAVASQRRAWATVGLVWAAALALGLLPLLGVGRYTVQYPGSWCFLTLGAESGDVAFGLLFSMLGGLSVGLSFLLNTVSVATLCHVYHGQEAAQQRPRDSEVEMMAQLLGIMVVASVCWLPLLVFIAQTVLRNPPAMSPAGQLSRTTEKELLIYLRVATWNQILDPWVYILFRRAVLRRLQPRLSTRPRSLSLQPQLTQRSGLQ", "experiment": "General side effect profile (SEP) II diversity panel", "type": "binding", "settings": "1.0E-5 M"}, "[10]": {"molecular_target": "T8, 70 key receptor, enzyme, and ion channel proteins (Homo sapiens, UniProt P21917)", "T8 construct": "purchased Caliper Life Sciences (now PerkinElmer), NOVASCREEN General SEP II", "T8 sequence (P21917 whole entry)": "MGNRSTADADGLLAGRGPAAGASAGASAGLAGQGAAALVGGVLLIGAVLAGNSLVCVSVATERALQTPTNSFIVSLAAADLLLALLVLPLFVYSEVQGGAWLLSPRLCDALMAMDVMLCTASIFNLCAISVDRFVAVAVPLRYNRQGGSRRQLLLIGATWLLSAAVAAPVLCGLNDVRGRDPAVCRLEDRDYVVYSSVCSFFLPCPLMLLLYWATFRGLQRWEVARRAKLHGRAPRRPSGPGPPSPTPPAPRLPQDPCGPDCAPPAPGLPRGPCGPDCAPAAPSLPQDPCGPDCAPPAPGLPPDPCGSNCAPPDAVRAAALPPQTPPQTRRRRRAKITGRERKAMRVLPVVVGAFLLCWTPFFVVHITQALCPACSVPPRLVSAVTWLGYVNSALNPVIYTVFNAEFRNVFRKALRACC", "experiment": "General side effect profile (SEP) II diversity panel", "type": "binding", "settings": "1.0E-5 M"}, "[11]": {"molecular_target": "T9, 70 key receptor, enzyme, and ion channel proteins (Homo sapiens, UniProt P29274)", "T9 construct": "purchased Caliper Life Sciences (now PerkinElmer), NOVASCREEN General SEP II", "T9 sequence (P29274 whole entry)": "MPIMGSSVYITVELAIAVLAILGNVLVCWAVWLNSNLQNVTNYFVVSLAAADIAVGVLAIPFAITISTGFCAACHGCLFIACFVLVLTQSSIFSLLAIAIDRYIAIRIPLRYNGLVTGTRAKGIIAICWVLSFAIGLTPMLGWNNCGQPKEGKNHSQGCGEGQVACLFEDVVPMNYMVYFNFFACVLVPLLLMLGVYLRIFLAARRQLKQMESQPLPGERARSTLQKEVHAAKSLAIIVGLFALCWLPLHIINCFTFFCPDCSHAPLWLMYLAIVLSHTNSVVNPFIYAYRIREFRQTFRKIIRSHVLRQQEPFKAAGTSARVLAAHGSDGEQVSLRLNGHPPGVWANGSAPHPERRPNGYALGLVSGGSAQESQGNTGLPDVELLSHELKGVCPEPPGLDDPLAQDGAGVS", "experiment": "General side effect profile (SEP) II diversity panel", "type": "binding", "settings": "1.0E-5 M"}, "[12]": {"molecular_target": "70 key receptor, enzyme, and ion channel proteins (Homo sapiens, UniProt P41143)", "sequence (P41143 whole entry)": "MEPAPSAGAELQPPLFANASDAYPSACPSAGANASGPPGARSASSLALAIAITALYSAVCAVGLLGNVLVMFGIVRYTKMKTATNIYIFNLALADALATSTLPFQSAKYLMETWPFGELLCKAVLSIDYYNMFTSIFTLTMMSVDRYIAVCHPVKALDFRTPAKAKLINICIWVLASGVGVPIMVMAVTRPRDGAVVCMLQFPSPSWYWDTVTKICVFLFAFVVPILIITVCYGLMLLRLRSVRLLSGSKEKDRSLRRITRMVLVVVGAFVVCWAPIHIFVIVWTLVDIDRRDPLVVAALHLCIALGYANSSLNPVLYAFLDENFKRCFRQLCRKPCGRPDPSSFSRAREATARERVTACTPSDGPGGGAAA", "experiment": "General side effect profile (SEP) II diversity panel", "type": "binding"}, "[13]": {"molecular_target": "T10, 70 key receptor, enzyme, and ion channel proteins (Homo sapiens, UniProt P50406)", "T10 construct": "purchased Caliper Life Sciences (now PerkinElmer), NOVASCREEN General SEP II", "T10 sequence (P50406 whole entry)": "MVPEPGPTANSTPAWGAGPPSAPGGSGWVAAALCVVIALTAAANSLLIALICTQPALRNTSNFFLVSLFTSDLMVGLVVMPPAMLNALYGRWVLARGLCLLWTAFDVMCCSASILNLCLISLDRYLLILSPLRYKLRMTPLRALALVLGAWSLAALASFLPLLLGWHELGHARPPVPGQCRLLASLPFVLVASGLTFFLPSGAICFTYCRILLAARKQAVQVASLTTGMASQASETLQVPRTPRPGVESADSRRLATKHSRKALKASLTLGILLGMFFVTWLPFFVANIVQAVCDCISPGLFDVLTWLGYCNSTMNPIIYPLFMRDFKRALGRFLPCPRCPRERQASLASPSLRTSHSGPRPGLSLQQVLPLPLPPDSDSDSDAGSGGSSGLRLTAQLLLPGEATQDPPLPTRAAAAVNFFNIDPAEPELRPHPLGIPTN", "experiment": "General side effect profile (SEP) II diversity panel", "type": "binding", "settings": "1.0E-5 M"}, "[14]": {"molecular_target": "T11, 70 key receptor, enzyme, and ion channel proteins (Homo sapiens, UniProt Q99808)", "T11 construct": "purchased Caliper Life Sciences (now PerkinElmer), NOVASCREEN General SEP II", "T11 sequence (Q99808 whole entry)": "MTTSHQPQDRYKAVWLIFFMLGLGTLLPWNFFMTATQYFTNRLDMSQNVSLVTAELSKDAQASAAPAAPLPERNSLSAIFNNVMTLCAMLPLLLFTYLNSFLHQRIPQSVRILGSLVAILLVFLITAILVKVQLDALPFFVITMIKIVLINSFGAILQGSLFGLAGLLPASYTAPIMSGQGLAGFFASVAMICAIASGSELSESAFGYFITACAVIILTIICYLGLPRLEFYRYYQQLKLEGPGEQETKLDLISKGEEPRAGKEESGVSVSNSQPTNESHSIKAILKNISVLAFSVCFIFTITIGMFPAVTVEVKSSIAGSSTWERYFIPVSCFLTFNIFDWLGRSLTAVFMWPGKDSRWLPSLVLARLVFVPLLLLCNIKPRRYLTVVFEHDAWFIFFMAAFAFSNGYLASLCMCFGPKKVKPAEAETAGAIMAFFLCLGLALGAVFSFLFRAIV", "experiment": "General side effect profile (SEP) II diversity panel", "type": "binding", "settings": "1.0E-5 M"}, "[15]": {"system": "70 key receptor, enzyme, and ion channel proteins", "experiment": "General side effect profile (SEP) II diversity panel", "type": "binding", "settings": "1.0E-5 M"}},
  "data": [
    {"smiles": "CC(C)(C)CNCCn1c(Sc2cc3c(cc2I)OCO3)nc2c(N)ncnc21", "note": "[Compound 85]", "values": [
      {"measurement": "EC50", "setting": "[1]", "value": 6.9, "unit": "nM"},
      {"measurement": "Percent Inhibition: Adrenergic, Beta 2 (h)", "setting": "[2]", "value": 3.05, "unit": "%"},
      {"measurement": "Percent Inhibition: Muscarinic, M2 (h)", "setting": "[3]", "value": 45.44, "unit": "%"},
      {"measurement": "Percent Inhibition: Muscarinic, Ml (hr)", "setting": "[4]", "value": 26.84, "unit": "%"},
      {"measurement": "Percent Inhibition: Kinase, Protein, PKCa (h)", "setting": "[5]", "value": 11.20, "unit": "%"},
      {"measurement": "Percent Inhibition: Kinase, Protein, PKA (h)", "setting": "[6]", "value": 0.09, "unit": "%"},
      {"measurement": "Percent Inhibition: Muscarinic, M3 (h)", "setting": "[7]", "value": 50.76, "unit": "%"},
      {"measurement": "Percent Inhibition: Dopamine, Dl (h)", "setting": "[8]", "value": 8.03, "unit": "%"},
      {"measurement": "Percent Inhibition: Thromboxane AZ (h)", "setting": "[9]", "value": 20.84, "unit": "%"},
      {"measurement": "Percent Inhibition: Dopamine, D4. 4 (h)", "setting": "[10]", "value": 10.85, "unit": "%"},
      {"measurement": "Percent Inhibition: Adenosine, A2A (h)", "setting": "[11]", "value": 0.79, "unit": "%"},
      {"measurement": "Percent Inhibition: Opioid, Delta 2 (h)", "setting": "[12]", "value": 20.37, "unit": "%"},
      {"measurement": "Percent Inhibition: Serotonin, 5HT6 (h)", "setting": "[13]", "value": 17.73, "unit": "%"},
      {"measurement": "Percent Inhibition: Adenosine Transporter (h)", "setting": "[14]", "value": -3.54, "unit": "%"},
      {"measurement": "Percent Inhibition: Adenosine, Al", "setting": "[15]", "value": 14.00, "unit": "%"},
      {"measurement": "Percent Inhibition: Adrenergic, Alpha 1B", "setting": "[15]", "value": 27.43, "unit": "%"},
      {"measurement": "Percent Inhibition: Adrenergic, Alpha 2A (h)", "setting": "[15]", "value": -1.92, "unit": "%"},
      {"measurement": "Percent Inhibition: Adrenergic, Alpha 2B", "setting": "[15]", "value": 10.67, "unit": "%"},
      {"measurement": "Percent Inhibition: Adrenergic, Alpha 2C (h)", "setting": "[15]", "value": 15.07, "unit": "%"},
      {"measurement": "Percent Inhibition: Adrenergic, Alpha lA", "setting": "[15]", "value": 12.17, "unit": "%"},
      {"measurement": "Percent Inhibition: Angiotensin II, ATl (h)", "setting": "[15]", "value": 0.36, "unit": "%"},
      {"measurement": "Percent Inhibition: Bradykinin, BK2", "setting": "[15]", "value": 10.14, "unit": "%"},
      {"measurement": "Percent Inhibition: Calcium Channel, Type N", "setting": "[15]", "value": -11.15, "unit": "%"},
      {"measurement": "Percent Inhibition: Dopamine Transporter", "setting": "[15]", "value": -12.87, "unit": "%"},
      {"measurement": "Percent Inhibition: Dopamine, D2s (h)", "setting": "[15]", "value": 20.57, "unit": "%"},
      {"measurement": "Percent Inhibition: Dopamine, D3", "setting": "[15]", "value": -6.23, "unit": "%"},
      {"measurement": "Percent Inhibition: Esterase, Acetylcholine", "setting": "[15]", "value": 6.63, "unit": "%"},
      {"measurement": "Percent Inhibition: GABA A, Agonist Site", "setting": "[15]", "value": 33.91, "unit": "%"},
      {"measurement": "Percent Inhibition: GABA A, BDZ, alpha 1 site", "setting": "[15]", "value": 18.61, "unit": "%"},
      {"measurement": "Percent Inhibition: GABA, Chloride, TBOB Site", "setting": "[15]", "value": -28.46, "unit": "%"},
      {"measurement": "Percent Inhibition: GABA-B", "setting": "[15]", "value": 18.61, "unit": "%"},
      {"measurement": "Percent Inhibition: Glutamate, AMPA Site (Ionotropic)", "setting": "[15]", "value": 8.62, "unit": "%"},
      {"measurement": "Percent Inhibition: Glutamate, Kainate Site (Ionotropic)", "setting": "[15]", "value": -7.63, "unit": "%"},
      {"measurement": "Percent Inhibition: Glutamate, MK-801 Site (Ionotropic)", "setting": "[15]", "value": -0.50, "unit": "%"},
      {"measurement": "Percent Inhibition: Glutamate, NMDA Agonist Site (Ionotropic)", "setting": "[15]", "value": 23.69, "unit": "%"},
      {"measurement": "Percent Inhibition: Glutamate, NMDA, Phencyclidine Site (Ionotropic)", "setting": "[15]", "value": 6.26, "unit": "%"},
      {"measurement": "Percent Inhibition: Glutamate,NMDA,Glycine (Stry-insens Site)", "setting": "[15]", "value": -0.97, "unit": "%"},
      {"measurement": "Percent Inhibition: Glycine, Strychnine-sensitive", "setting": "[15]", "value": -19.46, "unit": "%"},
      {"measurement": "Percent Inhibition: Histamine, H2", "setting": "[15]", "value": 40.98, "unit": "%"},
      {"measurement": "Percent Inhibition: Histamine, H3", "setting": "[15]", "value": 22.25, "unit": "%"},
      {"measurement": "Percent Inhibition: Histamine, Hl", "setting": "[15]", "value": 5.94, "unit": "%"},
      {"measurement": "Percent Inhibition: Leukotriene, LTB4 (BLT)", "setting": "[15]", "value": 22.06, "unit": "%"},
      {"measurement": "Percent Inhibition: Leukotriene, LTD4 (CysLTl)", "setting": "[15]", "value": 28.77, "unit": "%"},
      {"measurement": "Percent Inhibition: Neurokinin, NKl", "setting": "[15]", "value": 20.40, "unit": "%"},
      {"measurement": "Percent Inhibition: Nicotinic, Neuronal (a-BnTx insensitive)", "setting": "[15]", "value": -17.51, "unit": "%"},
      {"measurement": "Percent Inhibition: Nitric Oxide, NOS (Neuronal-Binding)", "setting": "[15]", "value": -1.73, "unit": "%"},
      {"measurement": "Percent Inhibition: Norepinephrine Transporter", "setting": "[15]", "value": 5.73, "unit": "%"},
      {"measurement": "Percent Inhibition: Phosphodiesterase, PDE4A1A (h)", "setting": "[15]", "value": 14.00, "unit": "%"},
      {"measurement": "Percent Inhibition: Potassium Channel, ATP-Sensitive", "setting": "[15]", "value": -1.01, "unit": "%"},
      {"measurement": "Percent Inhibition: Potassium Channel, Ca2+ Act., VI", "setting": "[15]", "value": 18.66, "unit": "%"},
      {"measurement": "Percent Inhibition: Serotonin Transporter", "setting": "[15]", "value": 5.96, "unit": "%"},
      {"measurement": "Percent Inhibition: Serotonin, 5HT1D", "setting": "[15]", "value": 5.13, "unit": "%"},
      {"measurement": "Percent Inhibition: Serotonin, 5HT2A", "setting": "[15]", "value": 8.50, "unit": "%"},
      {"measurement": "Percent Inhibition: Serotonin, 5HT2C", "setting": "[15]", "value": 12.77, "unit": "%"},
      {"measurement": "Percent Inhibition: Serotonin, 5HT3", "setting": "[15]", "value": 6.61, "unit": "%"},
      {"measurement": "Percent Inhibition: Serotonin, 5HT4", "setting": "[15]", "value": 36.08, "unit": "%"},
      {"measurement": "Percent Inhibition: Sigma 2", "setting": "[15]", "value": -0.71, "unit": "%"},
      {"measurement": "Percent Inhibition: Sodium, Site 2", "setting": "[15]", "value": 14.53, "unit": "%"}
    ]}
  ]
}
